According to the supplement of paper PMC10307832:

How the values were obtained:
Assay in all cases: relative viability (nuclei count vs DMSO), 5 days (fraction); higher = more cells survive
AT-7519 + Navitoclax = compound: O=C(NC1CCNCC1)c1n[nH]cc1NC(=O)c1c(Cl)cccc1Cl [AT-7519] + CC1(C)CCC(c2ccc(Cl)cc2)=C(CN2CCN(c3ccc(C(=O)NS(=O)(=O)c4ccc(N[C@H](CCN5CCOCC5)CSc5ccccc5)c(S(=O)(=O)C(F)(F)F)c4)cc3)CC2)C1 [Navitoclax] (partner 0.5 µM)
How it was run: (§1)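 Lung cancer cell lines, seeded in 1536-well plates, were treated the following day by pin tool with a single drug or with five library-drug doses (not always all listed) in √10 steps on top of a fixed anchor-drug dose. Cells were fixed and nuclei stained in one step after 5 days, and nuclei were counted. Relative viability is the nuclei count for treated wells divided by that for vehicle wells, reported as medians of duplicate plates.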

[1] = compound: C1=CC2=C(C=C(C(=C2N=C1)O)N=NC3=CC4=C(C=C3)C=C(C=C4)S(=O)(=O)O)S(=O)(=O)O + N=C(N)NC(=N)NCCc1ccccc1 [Phenformin] (partner 250 µM)
How it was run: as §1

[2] = compound: C1=CC2=C(C=C(C(=C2N=C1)O)N=NC3=CC4=C(C=C3)C=C(C=C4)S(=O)(=O)O)S(=O)(=O)O + CC(=O)Nc1cccc(-n2c(=O)n(C3CC3)c(=O)c3c(Nc4ccc(I)cc4F)n(C)c(=O)c(C)c32)c1 [Trametinib] (partner 0.02 µM)
How it was run: as §1

[3] = compound: C1=CC2=C(C=C(C(=C2N=C1)O)N=NC3=CC4=C(C=C3)C=C(C=C4)S(=O)(=O)O)S(=O)(=O)O + Nc1ncn([C@H]2C[C@H](O)[C@@H](CO)O2)c(=O)n1 [Decitabine] (partner 2 µM)
How it was run: as §1

Cell Line	relative viability (AT-7519 + Navitoclax; first compound 0.01 µM)	relative viability (AT-7519 + Navitoclax; first compound 0.03162 µM)	relative viability (AT-7519 + Navitoclax; first compound 0.3162 µM)	relative viability (AT-7519 + Navitoclax; first compound 1 µM)	relative viability ([1]; first compound 0.08 µM)	relative viability ([1]; first compound 0.253 µM)	relative viability ([1]; first compound 0.8 µM)	relative viability ([1]; first compound 8 µM)	relative viability ([2]; first compound 0.08 µM)	relative viability ([2]; first compound 0.253 µM)	relative viability ([2]; first compound 0.8 µM)	relative viability ([2]; first compound 2.53 µM)	relative viability ([2]; first compound 8 µM)	relative viability ([3]; first compound 0.08 µM)	relative viability ([3]; first compound 0.253 µM)	relative viability ([3]; first compound 0.8 µM)	relative viability ([3]; first compound 2.53 µM)	relative viability ([3]; first compound 8 µM)	relative viability ([1]; first compound 2.53 µM)
NCI-H1792	0.406	0.552	0.642	0.752	0.261	0.343	0.254	0.295	0.5	0.387	0.454	0.494	0.391	0.627	0.483	0.508	0.5	0.473	–
ChaGo-K-1	0.971	1.39	0.726	0.982	0.444	0.491	0.525	0.359	0.983	0.908	0.938	0.875	0.798	0.54	0.534	0.532	0.439	0.528	0.531
COR-L23	1.24	1.15	0.774	0.138	0.488	0.43	0.422	0.45	0.669	0.604	0.609	0.556	0.611	0.495	0.448	0.421	0.508	0.407	0.419
COR-L 105	0.766	0.721	0.644	0.347	0.459	0.464	0.421	0.463	0.514	0.437	0.469	0.48	0.476	0.711	0.705	0.65	0.647	0.567	0.441
LK-2	0.76	0.75	0.77	0.745	0.639	0.36	0.303	0.332	0.795	0.602	0.607	0.776	0.552	0.417	0.254	0.201	0.384	0.296	0.381
201T	1.19	1.17	1.27	1.25	0.458	0.426	0.458	0.306	0.721	0.731	0.713	0.709	0.693	0.887	0.848	0.873	0.87	0.845	0.433
HCC-44	1.01	0.86	0.997	0.958	0.126	0.218	0.249	0.184	1.04	1.01	1.09	1.04	0.797	0.935	0.932	0.93	1.04	0.949	0.17
